Measurements as given in patent publication US20250340552A1, “COMPOUNDS, COMPOSITIONS AND METHODS OF TREATING DISORDERS” (HOTSPOT THERAPEUTICS, INC., priority 2022, published 2025).
Where two headings read alike, the source gives them in different places.

Target: T1, Cbl-B (Homo sapiens, UniProt Q13191)
T1 construct: MSD-Based Assay for Degradation of Cbl-B in THP-1 Cells; endogenous in cells; host or cells: THP-1 (title) / Jurkat (protocol text)
Assay: MSD-based assay for degradation of Cbl-B in THP-1 cells
Type: cell-based
Outline: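 Reported Dmax bins are A >70%, B 50–70%, C 30–50% and D <30%, from an electrochemiluminescence (MSD) sandwich assay of Cbl-B in cell lysates. THP-1 cells were exposed to compounds for 24 hours before lysis.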

[1] = Cbl-B degradation, Jurkat cells seeded (heading: THP-1 cells), 24 hours incubation, MSD readout
[2] = Cbl-B degradation, Jurkat cells seeded (heading: THP-1 cells), 24 hours incubation, MSD readout, read-out: Dmax

T1 sequence (Q13191 whole entry): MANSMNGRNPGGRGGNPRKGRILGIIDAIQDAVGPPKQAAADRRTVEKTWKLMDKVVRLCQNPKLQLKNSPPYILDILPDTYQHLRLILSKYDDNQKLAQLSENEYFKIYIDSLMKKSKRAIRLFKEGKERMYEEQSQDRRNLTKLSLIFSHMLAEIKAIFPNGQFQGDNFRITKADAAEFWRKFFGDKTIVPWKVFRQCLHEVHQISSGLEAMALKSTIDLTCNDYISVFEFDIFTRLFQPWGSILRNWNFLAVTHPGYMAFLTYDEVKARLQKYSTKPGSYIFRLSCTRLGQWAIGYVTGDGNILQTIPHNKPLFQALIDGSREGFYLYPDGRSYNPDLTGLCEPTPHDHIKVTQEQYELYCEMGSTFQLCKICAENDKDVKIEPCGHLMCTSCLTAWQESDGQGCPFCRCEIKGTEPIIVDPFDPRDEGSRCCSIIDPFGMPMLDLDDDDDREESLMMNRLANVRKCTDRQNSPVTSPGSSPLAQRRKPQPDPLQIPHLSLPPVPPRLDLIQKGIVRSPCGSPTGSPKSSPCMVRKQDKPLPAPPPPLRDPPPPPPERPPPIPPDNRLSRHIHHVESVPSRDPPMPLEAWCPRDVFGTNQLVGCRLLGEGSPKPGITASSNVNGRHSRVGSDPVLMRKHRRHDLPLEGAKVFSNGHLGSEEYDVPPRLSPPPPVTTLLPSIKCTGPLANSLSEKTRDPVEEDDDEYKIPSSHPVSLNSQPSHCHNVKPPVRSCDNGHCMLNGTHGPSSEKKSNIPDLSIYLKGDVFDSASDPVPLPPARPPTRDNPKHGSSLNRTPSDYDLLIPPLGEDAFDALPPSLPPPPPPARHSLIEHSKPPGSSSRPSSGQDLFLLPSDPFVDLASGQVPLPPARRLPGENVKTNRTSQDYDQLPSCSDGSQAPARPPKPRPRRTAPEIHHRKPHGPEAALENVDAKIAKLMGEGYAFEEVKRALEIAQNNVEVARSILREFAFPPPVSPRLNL

DC50 [1] [nM]	Dmax [2] [%]	SMILES	Dmax (THP-1) [%]
> 10000	< 30	CN(CCN(C)C(=O)c1ccc(C2CCN(c3ccc4c(c3)CN([C@H]3CCC(=O)NC3=O)C4=O)CC2)cc1)Cc1cc(C(F)(F)F)c2cn(-c3cccc([C@H](c4nncn4C)C4CCC4)c3)c(=O)n2c1 (single isomer, unassigned) [Compound 212]	
> 10000	< 30	Cn1cnnc1[C@@H](c1cccc(-n2cc3c(C(F)(F)F)cc(CN4CCC(OCc5ccc(C6CCN(c7ccc8c(c7)CN([C@@H]7CCC(=O)NC7=O)C8=O)CC6)cc5)CC4)cn3c2=O)c1)C1CCC1 (single isomer, unassigned) [Compound 213]	
30 to 300	30 to 50	Cn1cnnc1[C@@H](c1cccc(-n2cc3c(C(F)(F)F)cc(CN4CCC(OCc5ccc(C6CCN(c7ccc8c(c7)CN([C@H]7CCC(=O)NC7=O)C8=O)CC6)cc5)CC4)cn3c2=O)c1)C1CCC1 (single isomer, unassigned) [Compound 214]	
300 to 1000	30 to 50	Cn1cnnc1[C@@H](c1cccc(-n2cc3c(C(F)(F)F)cc(CN4CCC(OCc5ccc(CC6CCN(c7ccc8c(c7)CN([C@@H]7CCC(=O)NC7=O)C8=O)CC6)cc5)CC4)cn3c2=O)c1)C1CCC1 (single isomer, unassigned) [Compound 217]	
< 30	> 70	Cn1cnnc1[C@@H](c1cccc(-n2cc3c(C(F)(F)F)cc(CN4CCC(OCc5ccc(CC6CCN(c7ccc8c(c7)CN([C@H]7CCC(=O)NC7=O)C8=O)CC6)cc5)CC4)cn3c2=O)c1)C1CCC1 (single isomer, unassigned) [Compound 218]	
30 to 300	50 to 70	Cn1cnnc1CC1(c2cccc(-n3cc4c(C(F)(F)F)cc(CN5CCC(OCCOCc6ccc(CN7CCN(c8ccc9c(c8)CN([C@@H]8CCC(=O)NC8=O)C9=O)CC7)cc6)CC5)cn4c3=O)c2)COC1 (single isomer, unassigned) [Compound 219]	
< 30	> 70	Cn1cnnc1CC1(c2cccc(-n3cc4c(C(F)(F)F)cc(CN5CCC(OCCOCc6ccc(CN7CCN(c8ccc9c(c8)CN([C@H]8CCC(=O)NC8=O)C9=O)CC7)cc6)CC5)cn4c3=O)c2)COC1 (single isomer, unassigned) [Compound 220]	
1000 to 10000	30 to 50	Cn1cnnc1[C@@H](c1cccc(-n2cc3c(C(F)(F)F)cc(CN4CCC(O[C@@H]5CCCN(C(=O)c6ccc(N7CCN(c8ccc9c(c8)CN([C@@H]8CCC(=O)NC8=O)C9=O)CC7)cc6)C5)CC4)cn3c2=O)c1)C1CCC1 (single isomer, unassigned) [Compound 225]	
30 to 300	> 70	Cn1cnnc1[C@@H](c1cccc(-n2cc3c(C(F)(F)F)cc(CN4CCC(O[C@@H]5CCCN(C(=O)c6ccc(N7CCN(c8ccc9c(c8)CN([C@H]8CCC(=O)NC8=O)C9=O)CC7)cc6)C5)CC4)cn3c2=O)c1)C1CCC1 (single isomer, unassigned) [Compound 226]	
< 30	> 70	Cn1cnnc1[C@@H](c1cccc(-n2cc3c(C(F)(F)F)cc(CN4CCN(CCc5ccc(C6CCN(c7ccc8c(c7)CN([C@H]7CCC(=O)NC7=O)C8=O)CC6)cc5)CC4)cn3c2=O)c1)C1CCC1 (single isomer, unassigned) [Compound 228]	
< 30	> 70	CO[C@H]1C[C@](c2cccc(-n3cc4c(C(F)(F)F)cc(CN5CCC(OCc6ccc(CN7CCN(c8ccc9c(c8)CN([C@H]8CCC(=O)NC8=O)C9=O)CC7)cc6)CC5)cn4c3=O)c2)(c2nncn2C)C1 (single isomer, unassigned) [Compound 232]	
		Cn1cnnc1[C@@H](c1cccc(-n2cc3c(C(F)(F)F)cc(CN4CCC[C@@H](COCc5ccc(CN6CCN(c7ccc8c(c7)CN([C@H]7CCC(=O)NC7=O)C8=O)CC6)cc5)C4)cn3c2=O)c1)C1CCC1 (single isomer, unassigned) [Compound 234]	> 70
30 to 300	50 to 70	Cn1cnnc1CC1(c2cccc(-n3cc4c(C(F)(F)F)cc(CN5CCC[C@@H](OCCc6ccc(CN7CCN(c8ccc9c(c8)CN([C@@H]8CCC(=O)NC8=O)C9=O)CC7)cc6)C5)cn4c3=O)c2)COC1 (single isomer, unassigned) [Compound 239]	
< 30	> 70	Cn1cnnc1CC1(c2cccc(-n3cc4c(C(F)(F)F)cc(CN5CCC[C@@H](OCCc6ccc(CN7CCN(c8ccc9c(c8)CN([C@H]8CCC(=O)NC8=O)C9=O)CC7)cc6)C5)cn4c3=O)c2)COC1 (single isomer, unassigned) [Compound 240]	
30 to 300	> 70	Cn1cnnc1CC1(c2cccc(-n3cc4c(C(F)(F)F)cc(CN5CCC(OCc6ccc(C(=O)N7CCN(c8ccc9c(c8)CN([C@@H]8CCC(=O)NC8=O)C9=O)CC7)cc6)CC5)cn4c3=O)c2)COC1 (single isomer, unassigned) [Compound 243]	
< 30	> 70	Cn1cnnc1CC1(c2cccc(-n3cc4c(C(F)(F)F)cc(CN5CCC(OCc6ccc(C(=O)N7CCN(c8ccc9c(c8)CN([C@H]8CCC(=O)NC8=O)C9=O)CC7)cc6)CC5)cn4c3=O)c2)COC1 (single isomer, unassigned) [Compound 244]	
< 30	> 70	CN(C(=O)c1ccc(CN2CCN(c3ccc4c(c3)CN([C@H]3CCC(=O)NC3=O)C4=O)CC2)cc1)C1CCN(Cc2cc(C(F)(F)F)c3cn(-c4cccc(C5(Cc6nncn6C)COC5)c4)c(=O)n3c2)CC1 (single isomer, unassigned) [Compound 246]	
300 to 1000	30 to 50	Cn1cnnc1[C@@H](c1cccc(-n2cc3c(C(F)(F)F)cc(CN4CCC(O[C@H]5CCCN(C(=O)c6ccc(N7CCN(c8ccc9c(c8)CN([C@@H]8CCC(=O)NC8=O)C9=O)CC7)cc6)C5)CC4)cn3c2=O)c1)C1CCC1 (single isomer, unassigned) [Compound 247]	
< 30	> 70	Cn1cnnc1[C@@H](c1cccc(-n2cc3c(C(F)(F)F)cc(CN4CCC(O[C@H]5CCCN(C(=O)c6ccc(N7CCN(c8ccc9c(c8)CN([C@H]8CCC(=O)NC8=O)C9=O)CC7)cc6)C5)CC4)cn3c2=O)c1)C1CCC1 (single isomer, unassigned) [Compound 248]	
30 to 300	30 to 50	Cn1cnnc1CC1(c2cccc(-n3cc4c(C(F)(F)F)cc(CN5CCC(OCc6ccc(N7CCN(c8ccc9c(c8)CN([C@@H]8CCC(=O)NC8=O)C9=O)CC7)cc6)CC5)cn4c3=O)c2)COC1 (single isomer, unassigned) [Compound 249]	
< 30	50 to 70	Cn1cnnc1CC1(c2cccc(-n3cc4c(C(F)(F)F)cc(CN5CCC(OCc6ccc(N7CCN(c8ccc9c(c8)CN([C@H]8CCC(=O)NC8=O)C9=O)CC7)cc6)CC5)cn4c3=O)c2)COC1 (single isomer, unassigned) [Compound 250]	
< 30	> 70	Cn1cnnc1[C@@H](c1cccc(-n2cc3c(C(F)(F)F)cc(CN4CCC(OC(=O)N5CCC(CC6CCN(c7ccc8c(c7)CN([C@H]7CCC(=O)NC7=O)C8=O)CC6)CC5)CC4)cn3c2=O)c1)C1CCC1 (single isomer, unassigned) [Compound 254]	
30 to 300	50 to 70	Cn1cnnc1CC1(c2cccc(-n3cc4c(C(F)(F)F)cc(CN5CCC(CCN6CCC(CC7CCN(c8ccc9c(c8)CN([C@@H]8CCC(=O)NC8=O)C9=O)CC7)CC6)CC5)cn4c3=O)c2)COC1 (single isomer, unassigned) [Compound 259]	
< 30	> 70	Cn1cnnc1CC1(c2cccc(-n3cc4c(C(F)(F)F)cc(CN5CCC[C@@H](OC6CCN(C(=O)c7ccc(N8CCN(c9ccc%10c(c9)CN([C@H]9CCC(=O)NC9=O)C%10=O)CC8)cc7)CC6)C5)cn4c3=O)c2)COC1 (single isomer, unassigned) [Compound 264]	
> 10000	< 30	Cn1cnnc1CC1(c2cccc(-n3cc4c(C(F)(F)F)cc(CNCCOCCOCCNc5cccc6c5C(=O)N(C5CCC(=O)NC5=O)C6=O)cn4c3=O)c2)COC1 (stereo not shown) [Compound 1]	

SMILES	DC50 [1] [nM]	Dmax [2] [%]	Dmax (THP-1) [%]
CO[C@H]1C[C@](c2cccc(-n3cc4c(C(F)(F)F)cc(CN5CCC(OCc6ccc(CN7CCN(c8ccc9c(c8)CN([C@@H]8CCC(=O)NC8=O)C9=O)CC7)cc6)CC5)cn4c3=O)c2)(c2nncn2C)C1 (single isomer, unassigned) [Compound 231]	300 to 1000	30 to 50	
CN(C(=O)c1ccc(CN2CCN(c3ccc4c(c3)CN([C@@H]3CCC(=O)NC3=O)C4=O)CC2)cc1)C1CCN(Cc2cc(C(F)(F)F)c3cn(-c4cccc(C5(Cc6nncn6C)COC5)c4)c(=O)n3c2)CC1 (single isomer, unassigned) [Compound 245]	300 to 1000	30 to 50	
Cn1cnnc1[C@@H](c1cccc(-n2cc3c(C(F)(F)F)cc(CN4CCC(OC(=O)N5CCC(CC6CCN(c7ccc8c(c7)CN([C@@H]7CCC(=O)NC7=O)C8=O)CC6)CC5)CC4)cn3c2=O)c1)C1CCC1 (single isomer, unassigned) [Compound 253]	30 to 300	50 to 70	
Cn1cnnc1CC1(c2cccc(-n3cc4c(C(F)(F)F)cc(CN5CCC(CC(=O)N6CCC(CC7CCN(c8ccc9c(c8)CN([C@@H]8CCC(=O)NC8=O)C9=O)CC7)CC6)CC5)cn4c3=O)c2)COC1 (single isomer, unassigned) [Compound 257]	30 to 300		50 to 70
Cn1cnnc1CC1(c2cccc(-n3cc4c(C(F)(F)F)cc(CN5CCC(CC(=O)N6CCC(CC7CCN(c8ccc9c(c8)CN([C@H]8CCC(=O)NC8=O)C9=O)CC7)CC6)CC5)cn4c3=O)c2)COC1 (single isomer, unassigned) [Compound 258]	< 30		> 70
Cn1cnnc1CC1(c2cccc(-n3cc4c(C(F)(F)F)cc(CN5CCC[C@@H](OC6CCN(C(=O)c7ccc(N8CCN(c9ccc%10c(c9)CN([C@@H]9CCC(=O)NC9=O)C%10=O)CC8)cc7)CC6)C5)cn4c3=O)c2)COC1 (single isomer, unassigned) [Compound 263]	< 30	> 70	
